The results in this text go back to patent US20150284375A1 (AJINOMOTO CO., INC., priority 2012, published 2015).

This test addresses T1, human TRPA1 (Homo sapiens, UniProt O75762).
T1 construct: expressed in transfected cells; host or cells: Human embryonic kidney-derived 293T cells, transiently transfected with the pcDNA3.1/zeo(+) human TRPA1 plasmid
As to the kind of experiment: Measurement of TRPA1 antagonist activity (intracellular calcium increase, FLIPR, allylisothiocyanate stimulation). The following applies: 293T cells transfected with human TRPA1; allylisothiocyanate 20 μM; concentration for 50% inhibitory rate; read-out: antagonism hTRPA1. The class given is cell-based. The text has this:
Measurement of TRPA1 Antagonist Activity
Human TRPA1 Expression Plasmid
As cDNA encoding human TRPA1 (GenBank accession No. […]), a commercially available product was purchased (manufactured by Kazusa DNA Research Institute, clone No.: pFN21AB7348, item No.: FHC07217). Using this as a template, full-length human TRPA1 gene was amplified using the primer sequences shown below, by reaction using DNA polymerase (manufactured by Stratagene, trade name: PfuUltra High-Fidelity DNA Polymerase).
A recognition site (underlined) of restriction enzyme HindIII was added to the 5′ side, and XbaI site (underlined) was added to the 3′ side, and GTT of the template sequence was changed to termination codon TAG (bold). The obtained double stranded DNA was enzyme-digested with HindIII and XbaI, and introduced into a multicloning site of expression plasmid pcDNA3.1/zeo(+) (manufactured by Invitrogen) to give a human TRPA1 expression plasmid.
Human embryonic kidney-derived 293T cells were cultured in Dulbecco's Modified Eagle Medium containing 10% fetal bovine serum, 10 unit penicillin, and 10 μg streptomycin, plated on a petri dish having a diameter of 10 cm at 3×10^6 cells, and cultured for 24 hr. A medium containing a reduced amount of serum (manufactured by Invitrogen, trade name: OPTI-MEM, 600 μL), a gene insertion reagent (manufactured by Mirus Bio, trade name: Mirus TransIT-293, 18 μL), and human TRPA1 expression plasmid (6 μg) were mixed, the total amount of the mixture was added to the cells on the petri dish to allow for gene transfer. The cells were recovered about 8 hr later, plated on a poly-D-lysine coated 384 well black/clear bottom plate at 7,500-12,000 cells/well, and cultured overnight.
Measurement of Intracellular Calcium Increase
The 384 well plate was recovered, and the medium was removed. A calcium-bonded fluorescent indicator (manufactured by Molecular Device, trade name: Calcium4 Assay Kit, 40 μL) dissolved in assay buffer (1×HBSS, 20 mM HEPES, pH 7.2) was added, and the cells were stained in a 37° C. incubator for 1 hr. The cells were taken out at room temperature and left standing for 15 min or more. A test substance (10 μL) was added by a 384 well type dispenser, and the mixture was incubated at room temperature for 10 min. Then, allylisothiocyanate (12.5 μL) at a final concentration of 20 μM was added by a fluorescence imaging plate reader (manufactured by Molecular Device, FLIPR), and changes in the relative fluorescence intensity were measured for 5 min.
Test Substance Preparation
The test substance was dissolved in dimethyl sulfoxide and serially diluted with an assay buffer containing 0.1% bovine serum albumin (1×HBSS, 20 mM HEPES, pH 7.2) to a 5-fold concentration of the evaluation concentration. Allylisothiocyanate, which is a known TRPA1 activator, was dissolved in dimethyl sulfoxide to 100 mM, and further diluted 5-fold (100 μM) of the final concentration, like the test substance.
Calculation of Antagonist Activity
Under the test substance-free conditions, the maximum variation range of the fluorescence intensity before and after allylisothiocyanate stimulation was defined to be 100% activity rate, and the variation range before and after buffer stimulation was defined as 0% activity rate. The activity rate on addition of the test substance was determined, and the numerical value obtained by subtracting the activity rate from 100 was defined to be an inhibitory rate. 1050, which is the concentration of the test substance necessary for reaching the 50% inhibitory rate, was calculated from the sigmoid approximate curve by a spreadsheet software Excel-Fit.

T1 sequence (O75762 whole entry): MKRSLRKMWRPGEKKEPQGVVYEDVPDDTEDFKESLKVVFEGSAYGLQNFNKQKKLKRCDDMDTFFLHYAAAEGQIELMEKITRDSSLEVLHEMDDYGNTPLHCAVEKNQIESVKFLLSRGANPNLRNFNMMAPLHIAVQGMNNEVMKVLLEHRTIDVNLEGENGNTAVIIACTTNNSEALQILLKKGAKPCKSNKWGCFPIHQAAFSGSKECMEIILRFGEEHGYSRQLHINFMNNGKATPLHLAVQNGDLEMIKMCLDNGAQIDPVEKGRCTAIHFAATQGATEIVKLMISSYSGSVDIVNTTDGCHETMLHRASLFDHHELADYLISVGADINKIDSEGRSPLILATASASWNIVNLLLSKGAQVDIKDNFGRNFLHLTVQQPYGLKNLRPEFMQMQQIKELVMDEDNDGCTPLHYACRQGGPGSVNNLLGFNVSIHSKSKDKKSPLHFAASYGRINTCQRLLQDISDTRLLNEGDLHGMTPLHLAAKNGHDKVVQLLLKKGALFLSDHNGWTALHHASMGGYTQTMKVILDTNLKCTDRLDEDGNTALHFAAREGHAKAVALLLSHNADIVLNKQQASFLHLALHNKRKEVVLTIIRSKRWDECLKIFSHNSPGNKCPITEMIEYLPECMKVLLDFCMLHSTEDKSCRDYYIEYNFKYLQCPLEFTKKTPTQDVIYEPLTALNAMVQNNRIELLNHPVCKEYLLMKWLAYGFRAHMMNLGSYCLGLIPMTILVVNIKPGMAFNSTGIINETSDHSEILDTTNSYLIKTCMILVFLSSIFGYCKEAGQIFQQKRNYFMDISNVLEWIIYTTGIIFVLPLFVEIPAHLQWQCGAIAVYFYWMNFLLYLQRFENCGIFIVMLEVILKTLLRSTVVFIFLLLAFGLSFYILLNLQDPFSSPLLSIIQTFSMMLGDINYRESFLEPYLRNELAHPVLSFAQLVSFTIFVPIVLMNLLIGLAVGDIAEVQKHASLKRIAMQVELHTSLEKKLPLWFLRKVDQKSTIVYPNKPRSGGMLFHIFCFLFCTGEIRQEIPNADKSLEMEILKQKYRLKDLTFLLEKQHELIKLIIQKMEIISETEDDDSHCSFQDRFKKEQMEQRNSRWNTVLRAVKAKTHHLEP

`O=C(NCc1cccc(Oc2ccccc2C(F)(F)F)c1)[C@@H]1CCCN1S(=O)(=O)c1ccc(Cl)s1` [Example 23, (2S)-1-(5-chlorothiophene-2-sulfonyl)-N-({3-[2-(trifluoro-methyl)phenoxy]phenyl}methyl)pyrrolidine-2-carboxamide]: the IC50 turned out to be 380 nM. For `O=C(NCc1ccc(Oc2cccc(C(F)(F)F)c2)c(Cl)c1)[C@@H]1CCCN1S(=O)(=O)c1ccc(Cl)s1` [Example 24, (2S)-1-(5-chlorothiophene-2-sulfonyl)-N-({3-chloro-4-[3-(trifluoro-methyl)phenoxy]phenyl}methyl)pyrrolidine-2-carboxamide], the IC50 is 140 nM.

Take `O=C(NCc1ccc(Oc2cccc(C(F)(F)F)c2)c(F)c1)[C@@H]1CCCN1S(=O)(=O)c1ccc(Cl)s1` [Example 25, (2S)-1-(5-chlorothiophene-2-sulfonyl)-N-({3-fluoro-4-[3-(trifluoro-methyl)phenoxy]phenyl}methyl)pyrrolidine-2-carboxamide]: the IC50 was found to be 130 nM. The same measure for `O=C(NCc1c(F)cc(Oc2cccc(C(F)(F)F)c2)cc1F)[C@@H]1CCCN1S(=O)(=O)c1ccc(Cl)s1` [Example 26, (2S)-1-(5-chlorothiophene-2-sulfonyl)-N-({2,6-difluoro-4-[3-(trifluoro-methyl)phenoxy]phenyl}methyl)pyrrolidine-2-carboximide]: 930 nM; for `O=C(NCc1ccc(F)c(Oc2ccc(C(F)(F)F)cc2)c1F)[C@@H]1CCCN1S(=O)(=O)c1ccc(Cl)s1` [Example 27, (2S)-1-(5-chlorothiophene-2-sulfonyl)-N-({2,4-difluoro-3-[4-(trifluoro-methyl)phenoxy]phenyl}methyl)pyrrolidine-2-carboxamide]: 220 nM.

`O=C(NCc1c(F)ccc(Oc2ccc(C(F)(F)F)cc2)c1Cl)[C@@H]1CCCN1S(=O)(=O)c1ccc(Cl)s1` [Example 28, (2S)-N-({2-chloro-6-fluoro-3-[4-(trifluoromethyl)phenoxy]phenyl}methyl)-1-(5-chlorothiophene-2-sulfonyl)pyrrolidine-2-carboxamide]: the IC50 amounted to 1900 nM. Consider `O=C(NCc1ccc(Oc2cccc(C(F)(F)F)c2)cc1)[C@@H]1C=CCN1S(=O)(=O)c1ccc(Cl)s1` [Example 29, (2S)-1-(5-chlorothiophene-2-sulfonyl)-N-({4-[3-(trifluoromethyl)phenoxy]phenyl}methyl)-2,5-dihydropyrrole-2-carboxamide], for which the IC50 amounted to 140 nM. With `O=C(NCc1ccc(Oc2cccc(C(F)(F)F)c2)cc1)[C@@H]1CCCN1S(=O)(=O)c1ccc(F)cc1` [Example 30, (2S)-1-(4-fluorophenyl)sulfonyl-N-({4-[3-(trifluoro-methyl)phenoxy]phenyl}methyl)pyrrolidine-2-carboxamide], the IC50 turned out to be 230 nM.

Consider `O=C(NCc1ccc(Oc2cccc(C(F)(F)F)c2)cc1)[C@@H]1CCN1S(=O)(=O)c1ccc(Cl)s1` [Example 31, (2S)-1-(5-chlorothiophene-2-sulfonyl)-N-({4-[3-(trifluoro-methyl)phenoxy]phenyl}methyl)azetidine-2-carboxamide], for which the IC50 turned out to be 900 nM. With `O=C(NCc1cccc(Oc2ccc(C(F)(F)F)cc2)c1)[C@@H]1C=CCN1S(=O)(=O)c1ccc(Cl)s1` [Example 32, (2S)-1-(5-chlorothiophene-2-sulfonyl)-N-({3-[4-(trifluoro-methyl)phenoxy]phenyl}methyl)-2,5-dihydropyrrole-2-carboxamide] the figure was 19 nM; with `O=C(NCc1cccc(Oc2ccc(C(F)(F)F)cc2)c1)[C@@H]1CCCN1S(=O)(=O)c1ccc(F)cc1` [Example 33, (2S)-1-(4-fluorophenyl)sulfonyl-N-({3-[4-(trifluoro-methyl)phenoxy]phenyl}methyl)pyrrolidine-2-carboxamide], 56 nM; with `O=C(NCc1cccc(Oc2ccc(C(F)(F)F)cc2)c1)[C@@H]1CCN1S(=O)(=O)c1ccc(Cl)s1` [Example 34, (2S)-1-(5-chlorothiophene-2-sulfonyl)-N-({3-[4-(trifluoro-methyl)phenoxy]phenyl}methyl)azetidine-2-carboxamide], 150 nM. The same measure for `O=C(NCc1cccc(Oc2ccc(C(F)(F)F)cc2)c1)C1COCCN1S(=O)(=O)c1ccc(Cl)s1` (centres unmarked) [Example 35, 4-(5-chlorothiophene-2-sulfonyl)-N-({3-[4-(trifluoro-methyl)phenoxy]phenyl}methyl)morpholine-3-carboxamide]: 810 nM. Turning to `O=C(NCc1cccc(Oc2ccc(C(F)(F)F)cc2)c1)[C@@H]1C=CCN1S(=O)(=O)c1ccc(F)cc1` [Example 36, (2S)-1-(4-fluorophenyl)sulfonyl-N-({3-[4-(trifluoromethyl)phenoxy]phenyl}methyl)-2,5-dihydropyrrole-2-carboxamide], the IC50 stood at 28 nM. Consider `O=C(NCc1cccc(Oc2ccc(C(F)(F)F)cc2)c1)[C@@H]1CCN1S(=O)(=O)c1ccc(F)cc1` [Example 37, (2S)-1-(4-fluorophenyl)sulfonyl-N-({3-[4-(trifluoro-methyl)phenoxy]phenyl}methyl)azetidine-2-carboxamide], for which the IC50 was found to be 160 nM. The same measure for `O=C(NCc1cccc(Oc2ccc(C(F)(F)F)cc2)c1)[C@@H]1CCCN1S(=O)(=O)c1ccc(Cl)cc1` [Example 38, (2S)-1-(4-chlorophenyl)sulfonyl-N-({3-[4-(trifluoro-methyl)phenoxy]phenyl}methyl)pyrrolidine-2-carboxamide]: 76 nM; for `O=C(NCc1ccnc(Oc2ccc(C(F)(F)F)cc2)c1)[C@@H]1CCCN1S(=O)(=O)c1ccc(Cl)s1` [Example 39, (2S)-1-(5-chlorothiophene-2-sulfonyl)-N-({2-[4-(trifluoro-methyl)phenoxy]-4-pyridyl}methyl)pyrrolidine-2-carboxamide]: 64 nM.

Take `O=C(NCc1cc(Oc2ccc(C(F)(F)F)cc2)ccn1)[C@@H]1CCCN1S(=O)(=O)c1ccc(Cl)s1` [Example 40, (2S)-1-(5-chlorothiophene-2-sulfonyl)-N-({4-[4-(trifluoro-methyl)phenoxy]-2-pyridyl}methyl)pyrrolidine-2-carboxamide]: the IC50 came to 66 nM. With `O=C(NCc1ccc(COc2ccccc2)cc1)[C@@H]1CCCN1S(=O)(=O)c1ccc(Cl)s1` [Example 41, (2S)-1-(5-chlorothiophene-2-sulfonyl)-N-{[4-(phenoxymethyl)phenyl]methyl}pyrrolidine-2-carboxamide] the figure was 310 nM; with `O=C(NCc1ccc(COc2ccc(C(F)(F)F)cc2)cc1)[C@@H]1CCCN1S(=O)(=O)c1ccc(Cl)s1` [Example 42, (2S)-1-(5-chlorothiophene-2-sulfonyl)-N-((4-{[4-(trifluoro-methyl)phenoxy]methyl}phenyl)methyl)pyrrolidine-2-carboxamide], 227 nM; with `O=C(NCc1ccc(COc2ccc(OC(F)(F)F)cc2)cc1)[C@@H]1CCCN1S(=O)(=O)c1ccc(Cl)s1` [Example 43, (2S)-1-(5-chlorothiophene-2-sulfonyl)-N-((4-{[4-(trifluoro-methoxy)phenoxy]methyl}phenyl)methyl)pyrrolidine-2-carboxamide], 380 nM. For `Cc1ccc(OCc2ccc(CNC(=O)[C@@H]3CCCN3S(=O)(=O)c3ccc(Cl)s3)cc2)cc1` [Example 44, (2S)-1-(5-chlorothiophene-2-sulfonyl)-N-({4-[(4-methyl-phenoxy)methyl]phenyl}methyl)pyrrolidine-2-carboxamide], the IC50 was 670 nM.

As for `COc1ccc(OCc2ccc(CNC(=O)[C@@H]3CCCN3S(=O)(=O)c3ccc(Cl)s3)cc2)cc1` [Example 45, (2S)-1-(5-chlorothiophene-2-sulfonyl)-N-({4-[(4-methoxy-phenoxy)methyl]phenyl}methyl)pyrrolidine-2-carboxamide], the IC50 amounted to 670 nM.
